Test results from PubChem BioAssay (NCI).
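How tested: cells in 96-well plates exposed to compound for 48 hours at five concentrations. GI50 is the concentration that inhibits growth by half. TGI marks complete inhibition of growth.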

Tests used:
Assay in all cases: NCI-60 cell line screen, 48 h
SK-MEL-28 melanoma = tested on: SK-MEL-28 melanoma
EKVX NSCLC = tested on: EKVX NSCLC
UACC-62 melanoma = tested on: UACC-62 melanoma
HCT-15 colon = tested on: HCT-15 colon
KM12 colon = tested on: KM12 colon
OVCAR-4 ovarian = tested on: OVCAR-4 ovarian
MALME-3M melanoma = tested on: MALME-3M melanoma
UO-31 renal = tested on: UO-31 renal
A498 renal = tested on: A498 renal
OVCAR-3 ovarian = tested on: OVCAR-3 ovarian
M14 melanoma = tested on: M14 melanoma
T-47D breast = tested on: T-47D breast
U251 CNS = tested on: U251 CNS
SF-295 CNS = tested on: SF-295 CNS
IGROV1 ovarian = tested on: IGROV1 ovarian
HS 578T breast = tested on: HS 578T breast
HCC-2998 colon = tested on: HCC-2998 colon
K-562 leukemia = tested on: K-562 leukemia
DU-145 prostate = tested on: DU-145 prostate
SR leukemia = tested on: SR leukemia
NCI-H522 lung = tested on: NCI-H522 lung
UACC-257 melanoma = tested on: UACC-257 melanoma
RPMI-8226 leukemia = tested on: RPMI-8226 leukemia
MDA-MB-231 breast = tested on: MDA-MB-231 breast
PC-3 prostate = tested on: PC-3 prostate
ACHN renal = tested on: ACHN renal
CCRF-CEM leukemia = tested on: CCRF-CEM leukemia
SF-268 CNS = tested on: SF-268 CNS
SK-OV-3 ovarian = tested on: SK-OV-3 ovarian
SF-539 CNS = tested on: SF-539 CNS
LOX IMVI melanoma = tested on: LOX IMVI melanoma
COLO 205 colon = tested on: COLO 205 colon
SW-620 colon = tested on: SW-620 colon
A549 NSCLC = tested on: A549 NSCLC
MDA-MB-435 = tested on: MDA-MB-435
SK-MEL-5 melanoma = tested on: SK-MEL-5 melanoma
SNB-75 CNS = tested on: SNB-75 CNS
HOP-62 NSCLC = tested on: HOP-62 NSCLC
HT29 colon = tested on: HT29 colon
SNB-19 CNS = tested on: SNB-19 CNS
OVCAR-5 ovarian = tested on: OVCAR-5 ovarian
MOLT-4 leukemia = tested on: MOLT-4 leukemia
RXF 393 renal = tested on: RXF 393 renal
HOP-92 NSCLC = tested on: HOP-92 NSCLC
TK-10 renal = tested on: TK-10 renal
HCT-116 colon = tested on: HCT-116 colon
CAKI-1 renal = tested on: CAKI-1 renal
OVCAR-8 ovarian = tested on: OVCAR-8 ovarian
BT-549 breast = tested on: BT-549 breast
MCF7 breast = tested on: MCF7 breast
SN12C renal = tested on: SN12C renal
NCI-H460 lung = tested on: NCI-H460 lung
NCI/ADR-RES ovarian = tested on: NCI/ADR-RES ovarian
786-0 renal = tested on: 786-0 renal
NCI-H226 lung = tested on: NCI-H226 lung
SK-MEL-2 melanoma = tested on: SK-MEL-2 melanoma

Compound COc1ccc(C2C(C#N)=C(N)Oc3c2sc2ccc(C)cc32)cc1 (configuration not stated) has a GI50 (SK-MEL-28 melanoma) of 5.86 µM, a TGI (SK-MEL-28 melanoma) greater than 100 µM and a GI50 (EKVX NSCLC) of 7.35 µM. It also gave a TGI (EKVX NSCLC) greater than 100 µM, a GI50 (UACC-62 melanoma) of 3.26 µM and a TGI (UACC-62 melanoma) of 49.9 µM. It also gave a GI50 (HCT-15 colon) of 3.35 µM, a TGI (HCT-15 colon) greater than 100 µM and a GI50 (KM12 colon) of 3.81 µM. For the same compound, the TGI (KM12 colon) was greater than 100 µM, the GI50 (OVCAR-4 ovarian) was 8.07 µM and the TGI (OVCAR-4 ovarian) was greater than 100 µM. The GI50 (MALME-3M melanoma) was 3.56 µM, the TGI (MALME-3M melanoma) was 62.3 µM and the GI50 (UO-31 renal) was 3.56 µM. It also gave a TGI (UO-31 renal) greater than 100 µM, a GI50 (A498 renal) of 47 µM and a TGI (A498 renal) greater than 100 µM. The GI50 (OVCAR-3 ovarian) was 3.71 µM, the TGI (OVCAR-3 ovarian) was greater than 100 µM and the GI50 (M14 melanoma) was 2.84 µM. For the same compound, the TGI (M14 melanoma) was 14.6 µM, the GI50 (T-47D breast) was 3.13 µM and the TGI (T-47D breast) was greater than 100 µM. For the same compound, the GI50 (U251 CNS) was 3.78 µM, the TGI (U251 CNS) was 27.5 µM and the GI50 (SF-295 CNS) was 3.93 µM. For the same compound, the TGI (SF-295 CNS) was 28.6 µM, the GI50 (IGROV1 ovarian) was 4.64 µM and the TGI (IGROV1 ovarian) was greater than 100 µM. The GI50 (HS 578T breast) was 3.31 µM, the TGI (HS 578T breast) was 36.8 µM and the GI50 (HCC-2998 colon) was 6.37 µM. It also gave a TGI (HCC-2998 colon) greater than 100 µM, a GI50 (K-562 leukemia) of 1.56 µM and a TGI (K-562 leukemia) greater than 100 µM. It also gave a GI50 (DU-145 prostate) of 7.08 µM, a TGI (DU-145 prostate) greater than 100 µM and a GI50 (SR leukemia) of 2.42 µM. The TGI (SR leukemia) was greater than 100 µM, the GI50 (NCI-H522 lung) was 1.24 µM and the TGI (NCI-H522 lung) was 4.48 µM. For the same compound, the GI50 (UACC-257 melanoma) was 4.03 µM, the TGI (UACC-257 melanoma) was greater than 100 µM and the GI50 (RPMI-8226 leukemia) was 3.95 µM. For the same compound, the TGI (RPMI-8226 leukemia) was greater than 100 µM, the GI50 (MDA-MB-231 breast) was 9.6 µM and the TGI (MDA-MB-231 breast) was 86.7 µM. It also gave a GI50 (PC-3 prostate) of 3.46 µM, a TGI (PC-3 prostate) greater than 100 µM and a GI50 (ACHN renal) of 6.44 µM. For the same compound, the TGI (ACHN renal) was greater than 100 µM, the GI50 (CCRF-CEM leukemia) was 3.78 µM and the TGI (CCRF-CEM leukemia) was greater than 100 µM. For the same compound, the GI50 (SF-268 CNS) was 5.24 µM, the TGI (SF-268 CNS) was greater than 100 µM and the GI50 (SK-OV-3 ovarian) was 5.2 µM. It also gave a TGI (SK-OV-3 ovarian) of 54.8 µM, a GI50 (SF-539 CNS) of 3.21 µM and a TGI (SF-539 CNS) of 13.4 µM. The GI50 (LOX IMVI melanoma) was 5.92 µM, the TGI (LOX IMVI melanoma) was greater than 100 µM and the GI50 (COLO 205 colon) was 3.7 µM. It also gave a TGI (COLO 205 colon) greater than 100 µM, a GI50 (SW-620 colon) of 2.81 µM and a TGI (SW-620 colon) greater than 100 µM. The GI50 (A549 NSCLC) was 6.94 µM, the TGI (A549 NSCLC) was greater than 100 µM and the GI50 (MDA-MB-435) was 0.568 µM. The TGI (MDA-MB-435) was 2.17 µM, the GI50 (SK-MEL-5 melanoma) was 10.7 µM and the TGI (SK-MEL-5 melanoma) was greater than 100 µM. For the same compound, the GI50 (SNB-75 CNS) was 1.9 µM, the TGI (SNB-75 CNS) was 5.51 µM and the GI50 (HOP-62 NSCLC) was 3.71 µM. It also gave a TGI (HOP-62 NSCLC) of 28.1 µM, a GI50 (HT29 colon) of 3.14 µM and a TGI (HT29 colon) of 9.79 µM. For the same compound, the GI50 (SNB-19 CNS) was 6.01 µM, the TGI (SNB-19 CNS) was 86.7 µM and the GI50 (OVCAR-5 ovarian) was 5.77 µM. It also gave a TGI (OVCAR-5 ovarian) greater than 100 µM, a GI50 (MOLT-4 leukemia) of 3.63 µM and a TGI (MOLT-4 leukemia) greater than 100 µM. For the same compound, the GI50 (RXF 393 renal) was 2.64 µM, the TGI (RXF 393 renal) was 9.98 µM and the GI50 (HOP-92 NSCLC) was 1.05 µM. It also gave a TGI (HOP-92 NSCLC) of 7.07 µM, a GI50 (TK-10 renal) of 23 µM and a TGI (TK-10 renal) greater than 100 µM. The GI50 (HCT-116 colon) was 3.68 µM, the TGI (HCT-116 colon) was 83.9 µM and the GI50 (CAKI-1 renal) was 3.52 µM. For the same compound, the TGI (CAKI-1 renal) was 56.4 µM, the GI50 (OVCAR-8 ovarian) was 9.93 µM and the TGI (OVCAR-8 ovarian) was greater than 100 µM. The GI50 (BT-549 breast) was 2.7 µM, the TGI (BT-549 breast) was 7.68 µM and the GI50 (MCF7 breast) was 1.25 µM. The TGI (MCF7 breast) was greater than 100 µM, the GI50 (SN12C renal) was 4.46 µM and the TGI (SN12C renal) was greater than 100 µM. It also gave a GI50 (NCI-H460 lung) of 3.41 µM, a TGI (NCI-H460 lung) of 18.3 µM and a GI50 (NCI/ADR-RES ovarian) of 3.34 µM. The TGI (NCI/ADR-RES ovarian) was greater than 100 µM, the GI50 (786-0 renal) was 3.64 µM and the TGI (786-0 renal) was 15.1 µM. For the same compound, the GI50 (NCI-H226 lung) was 3.92 µM, the TGI (NCI-H226 lung) was 57.5 µM and the GI50 (SK-MEL-2 melanoma) was 2.2 µM. It also gave a TGI (SK-MEL-2 melanoma) of 7.49 µM.
